# Assay results: ChEMBL document CHEMBL4765274, “The development of advanced structural framework as multi-target-directed ligands for the treatment of Alzheimer's disease” (Eur J Med Chem, 2020)
# Active and inactive are the calls of the source. The calls are words filed in the database; no cut-off is given here. Peptide text beside a SMILES is read from it. * marks the point of attachment. Cbz = O=C(OCc1ccccc1)*
# What was measured:
# Acetylcholinesterase [1] = molecular target: Acetylcholinesterase (Electrophorus electricus, UniProt O42275); assay: Inhibition of electric eel AChE by Ellman's method
# Chain of Acetylcholinesterase (Electrophorus electricus, UniProt O42275) (O42275 whole entry): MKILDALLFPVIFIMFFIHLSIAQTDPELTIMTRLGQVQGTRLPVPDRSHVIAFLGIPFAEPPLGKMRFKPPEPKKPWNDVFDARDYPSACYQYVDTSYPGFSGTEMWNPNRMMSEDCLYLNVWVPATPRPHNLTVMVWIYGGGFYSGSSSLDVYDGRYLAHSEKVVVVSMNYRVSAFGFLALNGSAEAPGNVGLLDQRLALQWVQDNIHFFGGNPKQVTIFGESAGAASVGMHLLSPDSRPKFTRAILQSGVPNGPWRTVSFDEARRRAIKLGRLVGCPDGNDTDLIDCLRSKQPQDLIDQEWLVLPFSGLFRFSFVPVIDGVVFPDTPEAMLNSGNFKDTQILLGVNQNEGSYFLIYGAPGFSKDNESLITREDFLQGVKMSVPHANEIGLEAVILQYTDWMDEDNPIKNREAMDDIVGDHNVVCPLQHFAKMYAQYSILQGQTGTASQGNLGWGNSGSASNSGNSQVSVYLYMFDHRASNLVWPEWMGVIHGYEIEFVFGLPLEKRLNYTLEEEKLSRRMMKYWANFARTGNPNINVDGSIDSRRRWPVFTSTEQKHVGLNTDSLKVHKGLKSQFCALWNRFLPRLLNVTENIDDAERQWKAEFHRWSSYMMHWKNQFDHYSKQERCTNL
# Cholinesterase [2] = molecular target: Cholinesterase (Equus caballus, UniProt P81908); assay: Inhibition of equine serum BChE by Ellman's method; assay type: cell-free
# Chain of Cholinesterase (Equus caballus, UniProt P81908) (P81908 whole entry): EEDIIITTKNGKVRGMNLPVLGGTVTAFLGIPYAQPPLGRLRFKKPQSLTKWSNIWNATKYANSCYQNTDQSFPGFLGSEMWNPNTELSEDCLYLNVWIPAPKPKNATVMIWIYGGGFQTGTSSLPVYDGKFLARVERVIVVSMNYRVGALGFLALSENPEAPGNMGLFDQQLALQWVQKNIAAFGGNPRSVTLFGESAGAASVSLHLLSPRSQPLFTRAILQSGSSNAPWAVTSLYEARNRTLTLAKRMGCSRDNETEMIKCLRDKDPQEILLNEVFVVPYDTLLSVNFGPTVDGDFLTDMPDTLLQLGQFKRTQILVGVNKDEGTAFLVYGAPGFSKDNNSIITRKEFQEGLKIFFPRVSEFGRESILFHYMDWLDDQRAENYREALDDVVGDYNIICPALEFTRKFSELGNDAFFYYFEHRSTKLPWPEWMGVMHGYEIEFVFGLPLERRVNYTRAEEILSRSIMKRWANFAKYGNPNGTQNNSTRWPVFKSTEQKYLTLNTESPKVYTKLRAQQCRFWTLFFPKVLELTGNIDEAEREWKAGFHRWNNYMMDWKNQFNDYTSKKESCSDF
# [3] = Selectivity index, ratio of IC50 for inhibition of equine serum BChE to IC50 for inhibition of electric eel AChE
# Acetylcholinesterase [4] = molecular target: T1, Acetylcholinesterase (Homo sapiens, UniProt P22303); assay: Inhibition of AChE in human erythrocytes by Ellman's method; assay type: cell-based, Erythrocyte
# T1 sequence (P22303 whole entry): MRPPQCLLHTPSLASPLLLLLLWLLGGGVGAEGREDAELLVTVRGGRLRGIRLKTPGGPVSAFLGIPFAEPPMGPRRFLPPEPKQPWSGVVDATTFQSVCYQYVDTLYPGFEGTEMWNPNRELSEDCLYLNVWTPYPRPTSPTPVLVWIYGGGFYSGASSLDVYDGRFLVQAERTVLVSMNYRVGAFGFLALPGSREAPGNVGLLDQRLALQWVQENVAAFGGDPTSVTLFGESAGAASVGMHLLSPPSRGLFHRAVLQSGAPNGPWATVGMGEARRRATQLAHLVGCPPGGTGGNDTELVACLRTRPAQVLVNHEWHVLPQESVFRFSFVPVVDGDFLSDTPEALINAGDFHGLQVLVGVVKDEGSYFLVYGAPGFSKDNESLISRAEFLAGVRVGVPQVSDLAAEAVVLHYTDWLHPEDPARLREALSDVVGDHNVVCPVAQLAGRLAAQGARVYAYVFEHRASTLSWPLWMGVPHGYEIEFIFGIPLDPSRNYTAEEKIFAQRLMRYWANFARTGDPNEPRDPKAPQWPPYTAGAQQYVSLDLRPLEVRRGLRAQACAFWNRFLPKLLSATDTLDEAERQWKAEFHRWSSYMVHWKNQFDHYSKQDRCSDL
# Cholinesterase [5] = molecular target: T2, Cholinesterase (Homo sapiens, UniProt P06276); assay: Inhibition of human serum BChE by Ellman's method; assay type: cell-free
# T2 sequence (P06276 whole entry): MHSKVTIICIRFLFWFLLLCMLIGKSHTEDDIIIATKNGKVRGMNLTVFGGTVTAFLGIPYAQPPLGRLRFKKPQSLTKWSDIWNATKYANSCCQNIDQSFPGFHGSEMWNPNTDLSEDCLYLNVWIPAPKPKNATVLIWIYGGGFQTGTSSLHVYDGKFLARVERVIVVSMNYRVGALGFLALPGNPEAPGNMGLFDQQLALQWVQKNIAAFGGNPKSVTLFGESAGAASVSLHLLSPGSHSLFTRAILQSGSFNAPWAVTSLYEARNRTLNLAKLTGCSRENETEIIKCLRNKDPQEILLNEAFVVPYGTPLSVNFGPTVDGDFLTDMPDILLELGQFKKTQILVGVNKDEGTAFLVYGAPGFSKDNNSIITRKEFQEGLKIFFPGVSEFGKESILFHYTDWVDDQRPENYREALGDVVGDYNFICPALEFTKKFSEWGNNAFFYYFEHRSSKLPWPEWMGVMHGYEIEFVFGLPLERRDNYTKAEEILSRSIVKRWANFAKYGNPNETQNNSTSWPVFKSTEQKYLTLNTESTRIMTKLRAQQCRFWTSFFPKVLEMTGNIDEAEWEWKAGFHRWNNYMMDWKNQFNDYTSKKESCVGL
# [6] = Antioxidant activity assessed as trolox equivalent of AAPH radical scavenging activity measured every min for 4 hrs by ORAC-FL assay relative to trolox; assay type: functional
# Cholinesterase [7] = molecular target: T2, Cholinesterase; assay: Inhibition of human serum BChE by Ellman's method relative to control; assay type: cell-free; design: concentration or dose not given beside the values; conditions: concentration not given here
# [8] = Inhibition of self-induced amyloid beta (1 to 42 residues) (unknown origin) aggregation by thioflavin T based fluorescence assay; design: species or system Homo sapiens
# PC-12 [9] = assay: Cytotoxicity against rat PC-12 cells assessed as reduction in cell viability up to 100 uM after 48 hrs by MTT assay; assay type: cell-based; conditions: pc-12, 48 h
# PC-12 [10] = assay: Neuroprotective activity against H2O2-induced cytotoxicity in rat PC-12 cells assessed as increase in cell viability preincubated for 2 hrs followed by H2O2 addition and measured after 24 hrs by MTT assay; assay type: functional, cell-based; conditions: dose 1-10 µM, time 26.0 hrs
# PC-12 [11] = assay: Neuroprotective activity against H2O2-induced cytotoxicity in rat PC-12 cells assessed as decrease in LDH activity at 1 to 10 uM preincubated for 2 hrs followed by H2O2 addition and measured after 24 hrs by LDH assay; assay type: functional, cell-based; conditions: dose 1-10 µM, time 26.0 hrs
# SH-SY5Y [12] = assay: Cytotoxicity against human SH-SY5Y cells assessed as cell viability up to 100 uM after 48 hrs by MTT assay relative to control; assay type: cell-based
# SH-SY5Y [13] = assay: Neuroprotective activity against amyloid beta (1 to 42 residues)-induced cytotoxicity in human SH-SY5Y cells assessed as increase in cell viability at 1 to 10 uM incubated for 48 hrs by MTT assay; assay type: functional, cell-based; conditions: dose 1-10 µM
# [14] = molecular target: Acetylcholinesterase (Electrophorus electricus) (UniProt O42275); assay: Inhibition of electric eel AChE at 25 uM by Ellman's method relative to control
# Chain of Acetylcholinesterase (Electrophorus electricus) (O42275 24-633 limits assumed): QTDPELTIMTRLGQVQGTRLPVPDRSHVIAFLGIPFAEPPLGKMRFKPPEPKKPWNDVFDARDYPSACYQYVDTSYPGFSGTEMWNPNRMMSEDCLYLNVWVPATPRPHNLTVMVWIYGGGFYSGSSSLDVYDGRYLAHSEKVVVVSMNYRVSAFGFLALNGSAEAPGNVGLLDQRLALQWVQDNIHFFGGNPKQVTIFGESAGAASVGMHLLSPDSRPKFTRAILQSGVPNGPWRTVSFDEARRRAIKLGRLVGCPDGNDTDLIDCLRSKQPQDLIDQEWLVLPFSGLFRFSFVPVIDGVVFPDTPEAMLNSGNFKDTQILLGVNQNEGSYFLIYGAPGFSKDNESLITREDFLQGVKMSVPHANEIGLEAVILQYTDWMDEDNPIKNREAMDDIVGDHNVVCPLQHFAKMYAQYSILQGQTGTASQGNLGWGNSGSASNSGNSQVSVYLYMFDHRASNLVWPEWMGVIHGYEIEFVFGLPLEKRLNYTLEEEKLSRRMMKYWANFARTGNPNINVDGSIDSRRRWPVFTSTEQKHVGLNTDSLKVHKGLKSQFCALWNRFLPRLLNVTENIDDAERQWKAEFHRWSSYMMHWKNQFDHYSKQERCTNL
# [15] = molecular target: Cholinesterase (Equus caballus) (UniProt P81908); assay: Inhibition of equine serum BChE at 25 uM by Ellman's method relative to control; assay type: cell-free
# Chain of Cholinesterase (Equus caballus) (P81908 whole entry): as the sequence (P81908 whole entry) above
# Acetylcholinesterase [16] = molecular target: T1, Acetylcholinesterase; assay: Inhibition of AChE in human erythrocytes at 25 uM by Ellman's method relative to control; assay type: cell-based; conditions: Erythrocyte
# Cholinesterase [17] = molecular target: T2, Cholinesterase; assay: Inhibition of human serum BChE at 25 uM by Ellman's method relative to control; assay type: cell-free
# [18] = Effective permeability of compound at 100 ug/m by PAMPA-BBB assay; assay type: ADME; conditions: read-out: Peff
# Homo sapiens = species: Homo sapiens; assay: Inhibition of self-induced amyloid beta (1 to 42 residues) (unknown origin) aggregation at 25 uM by thioflavin T based fluorescence assay relative to control
# [19] = Inhibition of Cu2+-induced amyloid beta (1 to 42 residues) (unknown origin) aggregation at 25 uM after 24 hrs by thioflavin-T fluorescence method relative to control
# [20] = Disaggregation of Cu2+ induced amyloid beta (1 to 42 residues) (unknown origin) aggregation at 25 uM by thioflavin-T fluorescence method relative to control
# HT-22 [21] = assay: Inhibition of ubiquitin-proteasome system in mouse HT-22 cells expressing YFP-CLI assessed as increase in GFP level at 0.5 uM after 24 hrs by flow cytometric analysis; assay type: cell-based
# HT-22 [22] = assay: Inhibition of ubiquitin-proteasome system in mouse HT-22 cells expressing YFP-CLI assessed as increase in GFP level at 0.5 uM after 24 hrs by fluorescence microscopic method; assay type: cell-based
# [23] = Cytotoxicity against rat PC-12 cells assessed as cell viability at 100 uM after 48 hrs by MTT assay relative to control; assay type: cell-based; conditions: read-out: Activity
# Danio rerio = species: Danio rerio; assay: Antialzheimer activity in Alcl3-induced zebra fish AD model assessed as increase in motility at 8 uM relative to control; assay type: functional
# Mus musculus = assay: Antialzheimer activity in scopolamine-induced Kunming mouse model of memory impairment assessed as latency time at 5 mg/kg , po by step-down passive avoidance test (reference value: 125.65 sec); assay type: functional
SMILES,IC50 (Acetylcholinesterase [1]),IC50 (Cholinesterase [2]),Ratio IC50 [3],IC50 (Acetylcholinesterase [4]),IC50 (Cholinesterase [5]),fold change (FC) [6],other results
O=c1cc(-c2ccc(OCCCCN3CCN(Cc4ccccc4)CC3)cc2)oc2cc(OCCCCN3CCN(Cc4ccccc4)CC3)cc(O)c12,26.8 µM,37.5 µM,1.4,1 µM,10.7 µM,1.8,–
O=C1CC(c2ccc(OCCCCN3CCc4ccccc4C3)cc2)Oc2cc(OCCCCN3CCc4ccccc4C3)cc(O)c21 (stereo not drawn),16.8 µM,–,–,13.2 µM,20.1 µM,1.2,inhibition (Cholinesterase [7]): 8.8%
O=C(/C=C/c1ccc(OCCCCN2CCCC2)cc1)c1c(O)cc(OCCCCN2CCCC2)cc1O,5.71 µM,8.19 µM,1.4,3.2 µM,1.8 µM,0.93,–
CCN(CCCCOc1ccc(C2CC(=O)c3c(O)cc(OCCCCN(CC)Cc4ccccc4OC)cc3O2)cc1)Cc1ccccc1OC (stereo not drawn),5.3 µM,21.9 µM,4.1,4.3 µM,15.6 µM,1.3,IC50 ([8]; read-out: IC50): 30.9 µM; Activity (PC-12 [9]): Non-Toxic; Activity (PC-12 [10]): Dose-dependent effect; Activity (PC-12 [11]): Active; Activity (SH-SY5Y [12]): Non-Toxic; Activity (SH-SY5Y [13]): Active
O=c1c(-c2ccc(OCCCCN3CCc4ccccc4C3)cc2)coc2cc(OCCCCN3CCc4ccccc4C3)cc(O)c12,13.5 µM,52.6 µM,3.9,8.1 µM,13.7 µM,1.1,–
O=c1cc(-c2ccc(O)cc2)oc2cc(O)cc(O)c12 [APIGENIN],–,–,–,–,–,6.1,inhibition [14]: < 5%; inhibition [15]: < 5%; inhibition (Acetylcholinesterase [16]): < 5%; inhibition (Cholinesterase [17]): < 5%; Papp at 100 ug/m [18]: 15.7 ×10⁻⁶ cm/s
O=c1c(-c2ccc(OCCCCN3CCN(Cc4ccccc4)CC3)cc2)coc2cc(OCCCCN3CCN(Cc4ccccc4)CC3)cc(O)c12,19.8 µM,–,–,25.1 µM,26.4 µM,1.8,inhibition (Cholinesterase [7]): 5.8%
O=c1c(-c2ccc(OCCCCN3CCC(Cc4ccccc4)CC3)cc2)coc2cc(OCCCCN3CCC(Cc4ccccc4)CC3)cc(O)c12,7.2 µM,31.8 µM,4.4,7.3 µM,11.9 µM,1.2,–
COc1cc(/C=C/C(=O)CC(=O)/C=C/c2ccc(O)c(OC)c2)ccc1O,–,–,–,–,–,–,inhibition (Homo sapiens): 43.7%; inhibition [19]: 53.6%; Activity [20]: 56.1%
CC(C)C[C@@H](C=O)NC(=O)[C@H](CC(C)C)NC(=O)[C@H](CC(C)C)NC(=O)OCc1ccccc1 (Cbz-Leu-Leu-Leu-aldehyde),–,–,–,–,–,–,inhibition (HT-22 [21]): Active; inhibition (HT-22 [22]): Active
CC1c2ccccc2CCN1CCCCOc1ccc(-c2coc3cc(OCCCCN4CCc5ccccc5C4C)cc(O)c3c2=O)cc1 (stereo not drawn),1.8 µM,–,–,5.3 µM,12.4 µM,1.3,inhibition (Cholinesterase [7]): 19%
CCN(CCCCOc1ccc(-c2coc3cc(OCCCCN(CC)Cc4ccccc4)cc(O)c3c2=O)cc1)Cc1ccccc1,2.3 µM,–,–,2.1 µM,18.2 µM,1.4,inhibition (Cholinesterase [7]): 12%
O=C1CC(c2ccc(OCCCCN3CCN(Cc4ccccc4)CC3)cc2)Oc2cc(OCCCCN3CCN(Cc4ccccc4)CC3)cc(O)c21 (stereo not drawn),11.6 µM,–,–,18.7 µM,21.4 µM,1.7,inhibition (Cholinesterase [7]): 12.2%
CCN(CC)CCCCOc1ccc(/C=C/C(=O)c2c(O)cc(OCCCCN(CC)CC)cc2O)cc1,6.24 µM,30.8 µM,4.9,4.7 µM,8.3 µM,0.9,–
O=c1c(-c2ccc(O)cc2)coc2cc(O)cc(O)c12,–,–,–,–,–,5.1,inhibition [15]: < 5%; inhibition (Cholinesterase [17]): < 5%
CCN(CCCCOc1ccc(/C=C/C(=O)c2c(O)cc(OCCCCN(CC)Cc3ccccc3OC)cc2O)cc1)Cc1ccccc1OC,1.16 µM,15.6 µM,13.4,1.3 µM,5.2 µM,1.3,"IC50 ([8]; read-out: IC50): 3.7 µM; viability at 48 h, 100 µM [23]: 55.6%; Activity (PC-12 [11]): Active; Activity (SH-SY5Y [12]): Toxic; Activity (SH-SY5Y [13]): Active"
COc1cc2c(cc1OC)C(=O)C(CC1CCN(Cc3ccccc3)CC1)C2 (stereo not drawn) [DONEPEZIL],–,–,–,–,–,–,IC50 [8]: Not Active; inhibition [19]: inactive; Activity (Danio rerio): 55%; Time (Mus musculus): 251.42 s
O=c1cc(-c2ccc(OCCCCN3CCC(Cc4ccccc4)CC3)cc2)oc2cc(OCCCCN3CCC(Cc4ccccc4)CC3)cc(O)c12,10.8 µM,19.7 µM,1.8,0.67 µM,12.9 µM,1.1,–
O=C(/C=C/c1ccc(OCCCCN2CCC(Cc3ccccc3)CC2)cc1)c1c(O)cc(OCCCCN2CCC(Cc3ccccc3)CC2)cc1O,16.3 µM,46.1 µM,2.8,11.9 µM,9.4 µM,1.1,–
O=c1cc(-c2ccc(OCCCCN3CCc4ccccc4C3)cc2)oc2cc(OCCCCN3CCc4ccccc4C3)cc(O)c12,18.2 µM,17.5 µM,0.96,0.59 µM,15.8 µM,1.3,–
O=C(/C=C/c1ccc(OCCCCN2CCCCC2)cc1)c1c(O)cc(OCCCCN2CCCCC2)cc1O,3.52 µM,7.2 µM,2,5.1 µM,3.7 µM,1.1,–
O=C1C[C@@H](c2ccc(O)cc2)Oc2cc(O)cc(O)c21,–,–,–,–,–,5.5,inhibition [14]: < 5%; inhibition [15]: < 5%; inhibition (Acetylcholinesterase [16]): < 5%; inhibition (Cholinesterase [17]): < 5%
O=c1c(-c2ccc(OCCCCN3CCCCC3)cc2)coc2cc(OCCCCN3CCCCC3)cc(O)c12,0.52 µM,2.2 µM,4.2,0.81 µM,19.6 µM,1.2,IC50 ([8]; read-out: IC50): 19.6 µM; Activity (PC-12 [9]): Non-Toxic; Activity (PC-12 [10]): Dose-dependent effect; Activity (PC-12 [11]): Active; Activity (SH-SY5Y [12]): Non-Toxic; Activity (SH-SY5Y [13]): Active
O=C(C=Cc1ccccc1)c1ccccc1,–,–,–,–,–,2.6,inhibition [14]: < 5%; inhibition [15]: < 5%; inhibition (Acetylcholinesterase [16]): < 5%; inhibition (Cholinesterase [17]): < 5%
O=C1CC(c2ccc(OCCCCN3CCC(Cc4ccccc4)CC3)cc2)Oc2cc(OCCCCN3CCC(Cc4ccccc4)CC3)cc(O)c21 (stereo not drawn),8.1 µM,7.5 µM,0.93,7.6 µM,18.7 µM,0.98,–
